Source: ChEMBL document CHEMBL1201862, “PubChem BioAssay data set” (2004)
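Compound exposure: 48 hours, 5 concentrations, 96-well plates. At the GI50, growth is halved.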 The source made the active and inactive calls. No stated cut-off is given here; in the data, active = GI50 up to about 1.1 µM and inactive = higher.

How the values were obtained:
Test in all cases: inhibition of tumour cell growth, NCI panel, 48 h
ACHN = test system: ACHN
DU-145 = test system: DU-145
EKVX = test system: EKVX
HOP-62 = test system: HOP-62
KM12 = test system: KM12
Malme-3M = test system: Malme-3M
OVCAR-3 = test system: OVCAR-3
RXF 393 = test system: RXF 393
SF-539 = test system: SF-539
SK-MEL-5 = test system: SK-MEL-5
SK-OV-3 = test system: SK-OV-3
SN12C = test system: SN12C
SNB-19 = test system: SNB-19
SR = test system: SR
T47D = test system: T47D
U-251 = test system: U-251
UACC-62 = test system: UACC-62
NCI-H23 = test system: NCI-H23
OVCAR-4 = test system: OVCAR-4

Measured: GI50

O=C1N[C@H]2c3c(Cl)sc(Cl)c3[C@@H](O)[C@H]2O1
inactive: ACHN > 100 µM | DU-145 > 100 µM | EKVX > 100 µM | HOP-62 > 100 µM | KM12 > 100 µM | Malme-3M > 100 µM | OVCAR-3 > 100 µM | RXF 393 > 100 µM | SF-539 > 100 µM | SK-MEL-5 > 100 µM | SK-OV-3 > 100 µM | SN12C > 100 µM | SNB-19 > 100 µM | SR > 100 µM | T47D > 100 µM | U-251 > 100 µM | UACC-62 > 100 µM

COC1OC(Cn2c(C)nc(Br)c2Br)C(O)C(O)C1O (configuration not stated)
inactive: ACHN > 100 µM | DU-145 > 100 µM | EKVX > 100 µM | HOP-62 > 100 µM | KM12 > 100 µM | Malme-3M > 100 µM | NCI-H23 > 100 µM | OVCAR-3 > 100 µM | OVCAR-4 > 100 µM | RXF 393 > 100 µM | SK-MEL-5 > 100 µM | SK-OV-3 > 100 µM | SNB-19 > 100 µM | SR > 10 µM | T47D > 100 µM | U-251 > 100 µM | UACC-62 > 100 µM

CN1CC[C@]23c4c5ccc(O)c4OC2c2[nH]ncc2C[C@H]3[C@H]1C5 (some centres not stated)
inactive: ACHN > 100 µM | DU-145 > 100 µM | EKVX > 100 µM | HOP-62 > 100 µM | KM12 > 100 µM | Malme-3M > 100 µM | NCI-H23 > 100 µM | OVCAR-3 > 100 µM | OVCAR-4 > 100 µM | RXF 393 > 100 µM | SK-MEL-5 > 100 µM | SK-OV-3 > 100 µM | SN12C > 100 µM | SNB-19 > 100 µM | SR > 100 µM | T47D > 100 µM | U-251 > 100 µM | UACC-62 > 100 µM

CC(=O)C(N1CCCCC1)C(O)(C(F)(F)F)C(F)(F)F (configuration not stated)
inactive: ACHN > 100 µM | DU-145 > 100 µM | EKVX > 100 µM | KM12 > 100 µM | Malme-3M > 100 µM | NCI-H23 39.5 µM | OVCAR-3 42.4 µM | OVCAR-4 > 100 µM | RXF 393 38.5 µM | SF-539 > 100 µM | SK-MEL-5 19.8 µM | SK-OV-3 > 100 µM | SNB-19 > 100 µM | SR > 100 µM | T47D 43.9 µM | U-251 88.9 µM | UACC-62 86.9 µM

Cc1ccc([S+]([O-])/C=C(\NC(=O)OCc2ccccc2)C(F)(F)F)cc1 (configuration not stated)
inactive: ACHN 17.8 µM | DU-145 77.3 µM | EKVX 46.6 µM | KM12 32.9 µM | Malme-3M 35.2 µM | NCI-H23 33.4 µM | OVCAR-3 43.6 µM | OVCAR-4 67.5 µM | RXF 393 35.5 µM | SF-539 26.7 µM | SK-MEL-5 60.4 µM | SK-OV-3 > 100 µM | SN12C 45.4 µM | SNB-19 29.3 µM | SR 30.4 µM | T47D 39.7 µM | U-251 18.6 µM | UACC-62 35.2 µM

CC(C(=O)NCNC(=O)c1ccccc1)C(=O)NCc1ccccc1 (configuration not stated)
inactive: ACHN > 100 µM | DU-145 > 100 µM | EKVX > 100 µM | KM12 > 100 µM | Malme-3M > 100 µM | NCI-H23 > 100 µM | RXF 393 > 100 µM | SF-539 > 100 µM | SK-MEL-5 > 100 µM | SK-OV-3 > 100 µM | SN12C > 100 µM | SNB-19 > 100 µM | SR > 100 µM | T47D > 100 µM | U-251 > 100 µM | UACC-62 > 100 µM

O=C(Nc1ccn(C2CCC(CO)O2)c(=O)n1)c1ccccc1 (configuration not stated)
inactive: ACHN > 100 µM | DU-145 > 100 µM | EKVX > 100 µM | HOP-62 > 100 µM | KM12 > 100 µM | Malme-3M > 100 µM | NCI-H23 > 100 µM | RXF 393 > 100 µM | SF-539 > 100 µM | SK-MEL-5 > 100 µM | SK-OV-3 > 100 µM | SN12C > 100 µM | SNB-19 > 100 µM | SR > 100 µM | T47D > 100 µM | U-251 > 100 µM | UACC-62 > 100 µM

CSC1=NN(c2ccccc2)C(=O)C1=C(SC)SC
inactive: DU-145 29.9 µM | EKVX 27.7 µM | KM12 31.6 µM | Malme-3M 11.2 µM | NCI-H23 19.1 µM | OVCAR-3 42.6 µM | OVCAR-4 19.4 µM | RXF 393 13.9 µM | SF-539 21.7 µM | SK-MEL-5 16.3 µM | SK-OV-3 31.1 µM | SN12C 28.4 µM | SNB-19 23.2 µM | SR 24 µM | T47D 18.2 µM | U-251 22.2 µM | UACC-62 21.2 µM
